Measured values published in the C3SDB collision cross section collection.
“And” between values parts separate entries of the source, which are not always exact repeats. Equal entries are not always repeated. One block for each compound: values may come before it.

Assays:
[1] = instrument: TW, calibrated with polyalanine
[2] = instrument: DT, single field, calibrated with Agilent tune mix (Agilent)
[3] = instrument: DT, stepped-field
[4] = instrument: DT, stepped-field; remark: listed apart in the source
[5] = instrument: DT, stepped-field; remark: listed apart in the source

Structure (SMILES): O=C(O)[C@@H]1C[C@@H](O)CN1 [Hydroxyproline]
collision cross section (N2) ([1]; [M+H]+): 122 Å²
collision cross section (N2) ([2]; [M+H]+): 128.1 Å²

Structure (SMILES): O=C(O)[C@@H]1CCCN1 [Proline]
collision cross section (N2) ([1]; [M+H]+): 118 Å²

Structure (SMILES): Nc1nc(=O)c2ncn([C@@H]3O[C@H](CO)[C@@H](O)[C@H]3O)c2[nH]1 [Guanosine]
collision cross section (N2) ([1]; [M+H]+): 160 Å²
collision cross section (N2) ([3]; [M+H]+): 165.02 Å²
collision cross section (N2) ([3]; [M+Na]+): 177.25 Å²
collision cross section (N2) ([2]; [M+Na]+): 174.6 Å²

Structure (SMILES): N[C@@H](Cc1cnc[nH]1)C(=O)O [Histidine]
collision cross section (N2) ([1]; [M+H]+): 127 Å²

Structure (SMILES): Nc1ncnc2c1ncn2[C@@H]1O[C@H](CO)[C@@H](O)[C@H]1O [Adenosine]
collision cross section (N2) ([1]; [M+H]+): 151 Å²
collision cross section (N2) ([3]; [M+H]+): 156.97 Å²
collision cross section (N2) ([3]; [M+Na]+): 170.07 Å²
collision cross section (N2) ([2]; [M+H]+): 155.7 Å²

Structure (SMILES): NC(=O)c1cccnc1 [Niacinamide]
collision cross section (N2) ([1]; [M+H]+): 118 Å²

Structure (SMILES): O=c1nc[nH]c2c1ncn2[C@@H]1O[C@H](CO)[C@@H](O)[C@H]1O [Inosine]
collision cross section (N2) ([1]; [M+H]+): 153 Å²
collision cross section (N2) ([3]; [M+H]+): 159.25 Å²
collision cross section (N2) ([3]; [M+Na]+): 175.37 Å²
collision cross section (N2) ([2]; [M+Na]+): 170.7 Å²

Structure (SMILES): Cc1ncc(C[n+]2csc(CCO)c2C)c(N)n1 [thiamine]
collision cross section (N2) ([1]; [M]+): 159 Å²

Structure (SMILES): OC[C@@H](O)[C@@H](O)[C@H](O)[C@H](O)CO [Mannitol]
collision cross section (N2) ([1]; [M+Na]+): 137 Å²
collision cross section (N2) ([5]; [M+Li]+): 144.5 Å²
collision cross section (N2) ([5]; [M+Na]+): 140.6 Å²

Structure (SMILES): Nc1ncnc2c1ncn2[C@H]1C[C@H](O)[C@@H](COP(=O)(O)O)O1 [dAMP]
collision cross section (N2) ([1]; [M+H]+): 164 Å²

Structure (SMILES): O=c1ccn([C@@H]2O[C@H](CO)[C@@H](O)[C@H]2O)c(=O)[nH]1 [Uridine]
collision cross section (N2) ([1]; [M+H]+): 152 Å²
collision cross section (N2) ([3]; [M+Na]+): 166 Å²
collision cross section (N2) ([2]; [M+Na]+): 160.1 Å²

Structure (SMILES): N[C@@H](CSSC[C@H](N)C(=O)O)C(=O)O [Cystine]
collision cross section (N2) ([1]; [M+H]+): 145 Å²

Structure (SMILES): Nc1ncnc2nc[nH]c12 [Adenine]
collision cross section (N2) ([1]; [M+H]+): 119 Å²
collision cross section (N2) ([3]; [M+H]+): 127.9 Å²
collision cross section (N2) ([2]; [M+H]+): 125.1 Å²

Structure (SMILES): O=c1[nH]c(=O)c2[nH]cnc2[nH]1 [Xanthine]
collision cross section (N2) ([1]; [M+H]+): 124 Å²
collision cross section (N2) ([3]; [M+H]+): 138.11 Å²
collision cross section (N2) ([3]; [M+Na]+): 152.65 Å²
collision cross section (N2) ([2]; [M+H]+): 130.3 Å²

Continued, values first:

collision cross section (N2) ([1]; [M+H]+): 181 Å²
Structure (SMILES): Nc1ncnc2c1ncn2[C@@H]1O[C@H](COP(=O)(O)OP(=O)(O)O)[C@@H](O)[C@H]1O [ADP]

collision cross section (N2) ([1]; [M+H]+): 217 Å²
Structure (SMILES): CCCCCCCCCCCCCCCC(=O)OC(CC(=O)[O-])C[N+](C)(C)C (stereo unspecified) [palmitoylcarnitine]

collision cross section (N2) ([4]; [M-H]-): 194.5 Å²
Structure (SMILES): CCCCCCCCCCCCCCCC(=O)O[C@H](CO)COP(=O)(O)O [LPA(16:0)]

collision cross section (N2) ([1]; [M+H]+): 124 Å²
collision cross section (N2) ([3]; [M+H]+): 133.45 Å²
collision cross section (N2) ([3]; [M+Na]+): 138.11 Å²
Structure (SMILES): NC(=O)CC[C@H](N)C(=O)O [Glutamine]

collision cross section (N2) ([4]; [M+H]+): 286.1 Å²
Structure (SMILES): CCCCCC/C=C\CCCCCCCCCC(=O)O[C@H](COC(=O)CCCCCCCCCCCCCCC)COP(=O)(O)OCCN [PE(16:0/18:1)]

collision cross section (N2) ([4]; [M-H]-): 295.9 Å² and 296.2 Å²
Structure (SMILES): CCCC/C=C\CCCCCCCC(=O)OC[C@H](COP(=O)(O)O[C@H]1C(O)C(O)C(O)[C@@H](O)C1O)OC(=O)CCCCCCCCC/C=C\CCCCCCCCCC (stereo partly specified) [PI(18:1/18:1)]

collision cross section (N2) ([4]; [M+H]+): 306.1 Å² and 306 Å²
Structure (SMILES): CCCC/C=C\CCCCCCCC(=O)OC[C@H](COP(=O)([O-])OCC[N+](C)(C)C)OC(=O)CCCCCCCCCCCCCCCCCCCCC [PC(18:0/18:1)]

collision cross section (N2) ([4]; [M-H]-): 283.6 Å²
Structure (SMILES): CCCCC/C=C\C/C=C\CCCCCCCC(=O)O[C@H](COC(=O)CCCCCCCCCCC)COP(=O)(O)O[C@H]1C(O)C(O)C(O)[C@@H](O)C1O (stereo partly specified) [PI(14:1/16:1)]

collision cross section (N2) ([1]; [M+Na]+): 161 Å²
Structure (SMILES): Nc1ccn([C@H]2C[C@H](O)[C@@H](COP(=O)(O)O)O2)c(=O)n1 [dCMP]

collision cross section (N2) ([1]; [M+Na]+): 134 Å²
Structure (SMILES): O=C(O)[C@H](O)COP(=O)(O)O [3-Phosphoglyceric acid]

collision cross section (N2) ([1]; [M+H]+): 123 Å²
Structure (SMILES): N[C@@H](CCC(=O)O)C(=O)O [Glutamic acid]
